Source: PubChem BioAssay (NCI)
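Interpolation was linear, between the two tested concentrations surrounding the appropriate level; five concentrations were tested over 48 hours in 96-well plates. Abbreviation: GI50, concentration required for 50% inhibition of growth. TGI marks complete inhibition of growth.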

How the values were obtained:
Experiment in all cases: growth of human tumour cells (NCI), 48 h
M14 melanoma = test system: M14 melanoma
SK-MEL-5 melanoma = test system: SK-MEL-5 melanoma
BT-549 breast = test system: BT-549 breast
COLO 205 colon = test system: COLO 205 colon
LOX IMVI melanoma = test system: LOX IMVI melanoma
PC-3 prostate = test system: PC-3 prostate
SF-268 CNS = test system: SF-268 CNS
IGROV1 ovarian = test system: IGROV1 ovarian

Row | Compound | GI50 (M14 melanoma) | TGI (M14 melanoma) | GI50 (SK-MEL-5 melanoma) | TGI (SK-MEL-5 melanoma) | GI50 (BT-549 breast) | TGI (BT-549 breast) | GI50 (COLO 205 colon) | TGI (COLO 205 colon) | GI50 (LOX IMVI melanoma) | TGI (LOX IMVI melanoma) | GI50 (PC-3 prostate) | TGI (PC-3 prostate) | GI50 (SF-268 CNS) | TGI (SF-268 CNS) | GI50 (IGROV1 ovarian) | TGI (IGROV1 ovarian)
1 | O=C1OCC2=C1C(c1cccc(C(F)(F)F)c1)c1cc3c(cc1N2CCO)CCC3 (centres undefined) | 159 nM | 6.2 µM | 0.156 µM | 2.18 µM | 0.219 µM | 5.32 µM | 163 nM | 1.59 µM | 271 nM | 6.77 µM | 0.194 µM | 7.56 µM | 0.266 µM | 7.15 µM | 0.312 µM | 8.25 µM
2 | COc1cc2c3c(n(CCCNCCNCCCN)c(=O)c2cc1OC)-c1cc2c(cc1C3=O)OCO2 | 3000 nM | 12.5 µM | 6.41 µM | 20.3 µM | 15.1 µM | 35.2 µM | 3570 nM | 17.9 µM | 1080 nM | 3.75 µM | 13.2 µM | 56.3 µM | 1.99 µM | 11.4 µM | 1.04 µM | 7.09 µM
3 | COc1ccc2c(c1)C(=O)c1c-2n(CCCN2CCOCC2)c(=O)c2cc([N+](=O)[O-])ccc12 | < 10 nM | < 0.01 µM | < 0.01 µM | < 0.01 µM | < 0.01 µM | 0.448 µM | < 11.1 nM | > 45.4 µM | < 10 nM | 0.0127 µM | < 0.01 µM | > 31.9 µM | < 0.01 µM | > 100 µM | < 0.01 µM | 25.7 µM
4 | Cc1ccc(Oc2nc3ccccc3cc2-c2nnc(Cn3c(COc4ccccc4)nc4ccccc43)o2)cc1 | 2330 nM | 7.4 µM | 1.9 µM | 3.97 µM | 1.77 µM | 4.06 µM | 1890 nM | 4.44 µM | 1590 nM | 4.32 µM | 2.71 µM | 15.4 µM | 3.41 µM | 15.9 µM | 3.25 µM | 22 µM
5 | CN(C)CCNC(=O)c1nc([N+](=O)[O-])cn1C | – | > 100 µM | – | > 100 µM | – | > 100 µM | – | > 100 µM | – | > 100 µM | – | > 100 µM | – | > 100 µM | – | > 100 µM
6 | COc1ccc(-c2cc(-c3nnc(SCC(=O)Nc4ccc(C(C)=O)cc4)o3)c3ccccc3n2)cc1 | > 100000 nM | > 100 µM | > 100 µM | > 100 µM | 8.77 µM | > 100 µM | > 100000 nM | > 100 µM | 73700 nM | > 100 µM | > 100 µM | > 100 µM | 29.1 µM | > 100 µM | 20.2 µM | > 100 µM
7 | Cc1cc(C)c2c(N)c3cccc(C)c3nc2n1 | 1580 nM | 3.24 µM | 1.44 µM | 2.74 µM | 3.48 µM | 20.2 µM | 702 nM | 2.17 µM | 1700 nM | 4.62 µM | 2.44 µM | 7.61 µM | 2.15 µM | 6.3 µM | 3.17 µM | > 100 µM
8 | O=C1C=CC(=O)c2c1ncc1c2nc2sccn21 | 15700 nM | 39.8 µM | 16.9 µM | 37.3 µM | 12.4 µM | 27.7 µM | 40300 nM | > 100 µM | 29900 nM | > 100 µM | 15.2 µM | 30.6 µM | 18.5 µM | > 100 µM | 22.7 µM | 56.6 µM
9 | O=[N+]([O-])c1ccc(N=Nc2c(O)[nH]c3ccccc23)cc1 | – | > 100 µM | – | > 77.3 µM | – | 71.3 µM | – | > 100 µM | – | > 96.3 µM | – | > 100 µM | – | 58.7 µM | – | 41.4 µM
10 | Oc1cc(Cl)ccc1Cc1ccc(Cl)cc1O | 13500 nM | 26.3 µM | 4.48 µM | 15.8 µM | 4.22 µM | 19.1 µM | 16900 nM | 30.6 µM | 5840 nM | 18.2 µM | 6.23 µM | 83 µM | 9.44 µM | 27.7 µM | 12.5 µM | 31.2 µM
11 | C=C(C)[C@@H]1CC[C@]2(C(=O)NCCNCCNCCN)CC[C@]3(C)[C@H](CC[C@@H]4[C@@]5(C)CCC(=O)C(C)(C)[C@@H]5CC[C@]43C)[C@@H]12 | 8380 nM | 19 µM | 6.99 µM | 13.5 µM | 8.91 µM | 22.2 µM | 8740 nM | 19 µM | 8720 nM | 16.6 µM | 6.26 µM | 13.1 µM | 7.53 µM | 15.9 µM | 6.42 µM | 14.4 µM
12 | CC(C)=CC1CC(C)C2(CCC3(C)CC4C(C(=O)CC4(C)O)/C(C=O)=C\CC32)O1 (centres undefined) | – | 0.311 µM | – | 0.588 µM | – | 0.351 µM | – | 0.153 µM | – | 0.182 µM | – | 0.14 µM | – | 0.275 µM | – | 0.296 µM
13 | CNCCOC(=O)/C=C1/CCC2C(C(O)CC3C(C)(C(=O)OC)CCCC23C)C1C (centres undefined) | 20.2 nM | 0.0424 µM | 0.0163 µM | 0.0321 µM | 0.0242 µM | 0.064 µM | 34.8 nM | 0.0958 µM | 19.2 nM | 0.042 µM | 0.0214 µM | 0.202 µM | < 0.01 µM | 0.02 µM | 0.0305 µM | 0.0971 µM
